Assay [1] relates to HIF-1alpha.
Method: LNCaP is a citrate-producing cell (ATTC No. CRL-1740) while PC3 is citrate oxidizing cell (ATTC No. CRL-1435).
Methods: Cells were plated at a density of 5×10^5 cells into a dish, and then maintained in 37° C. incubator (5% CO2) for 2 days. Prior to the assay, cells were rinsed twice with pre-warmed (37° C.) RPMI-1640 Medium (ATCC No. 30-2001; 10 mM HEPES; 1 mM sodium pyruvate; 2 mM L-glutamine; 4500 mg glucose/L; 1500 mg sodium bicarbonate/L). Cells were incubated with 2 mL culture medium in the absence or presence of lonidamine at different concentrations for 4 hours at 37° C. either under normoxia or hypoxia (oxygen level<0.1%). […] For nuclear extracts, cells were lysed with buffer A (10 mM Tris, pH7.5; 1.5 mM MgCl2; 10 mM KCl and protease inhibitors and buffer C (0.5 M NaCl; 20 mM Tris pH7.5; 1.5 mM MgCl2; 20% glycerol and protease inhibitors), sequentially. The protease inhibitors used in the experiments were a cocktail of five protease inhibitors (500 mM AEBSF-HCl, 1 mg/ml Aprotinin, 1 mM E-64, 500 mM EDTA and 1 mM Leupeptin; Calbiochem NO 539131). For whole cell lysate, cells were lysed with 150 mM NaCl; 10 mM Tris ph7.5; 10 mM EDTA; 1% Triton X-100; 0.5% Deoxycholate, and protease inhibitors. The protein concentration was measured using a Bio-Rad protein assay. […]
Assay [2] relates to metastatic breast cancer. Particulars: addition of LND to epirubicin, factorial design; cited from earlier work.
For assay [3], the system named is advanced breast cancer. Particulars: daily divided oral dose of 600 mg, cited from earlier work.
The subject of assay [4] is HIF-1alpha. Particulars: PC3 cells, normoxic and hypoxic conditions, 4 hours; inhibition dose-dependent.
Method: Methods: Cells were plated at a density of 5×10^5 cells into a dish, and then maintained in 37° C. incubator (5% CO2) for 2 days. Prior to the assay, cells were rinsed twice with pre-warmed (37° C.) RPMI-1640 Medium (ATCC No. 30-2001; 10 mM HEPES; 1 mM sodium pyruvate; 2 mM L-glutamine; 4500 mg glucose/L; 1500 mg sodium bicarbonate/L). […] At the end of the incubation, the dish was placed on ice, and the cells were washed rapidly twice with cold PBS buffer (4° C.). For nuclear extracts, cells were lysed with buffer A (10 mM Tris, pH7.5; 1.5 mM MgCl2; 10 mM KCl and protease inhibitors and buffer C (0.5 M NaCl; 20 mM Tris pH7.5; 1.5 mM MgCl2; 20% glycerol and protease inhibitors), sequentially. The protease inhibitors used in the experiments were a cocktail of five protease inhibitors (500 mM AEBSF-HCl, 1 mg/ml Aprotinin, 1 mM E-64, 500 mM EDTA and 1 mM Leupeptin; Calbiochem NO 539131). For whole cell lysate, cells were lysed with 150 mM NaCl; 10 mM Tris ph7.5; 10 mM EDTA; 1% Triton X-100; 0.5% Deoxycholate, and protease inhibitors. The protein concentration was measured using a Bio-Rad protein assay. Equal amounts of protein were loaded on a SDS-PAGE gel. […] The specific protein was detected using a colorimetric substrate, and the intensity of each protein was quantified using an NIH image system.
The subject of assay [5] is actin, caspase 3, NF-kappabeta, Ikappabetaalpha. Particulars: except at 800 microM concentration.
Method: Methods: Cells were plated at a density of 5×10^5 cells into a dish, and then maintained in 37° C. incubator (5% CO2) for 2 days. Prior to the assay, cells were rinsed twice with pre-warmed (37° C.) RPMI-1640 Medium (ATCC No. 30-2001; 10 mM HEPES; 1 mM sodium pyruvate; 2 mM L-glutamine; 4500 mg glucose/L; 1500 mg sodium bicarbonate/L). Cells were incubated with 2 mL culture medium in the absence or presence of lonidamine at different concentrations for 4 hours at 37° C. either under normoxia or hypoxia (oxygen level<0.1%). At the end of the incubation, the dish was placed on ice, and the cells were washed rapidly twice with cold PBS buffer (4° C.). For nuclear extracts, cells were lysed with buffer A (10 mM Tris, pH7.5; 1.5 mM MgCl2; 10 mM KCl and protease inhibitors and buffer C (0.5 M NaCl; 20 mM Tris pH7.5; 1.5 mM MgCl2; 20% glycerol and protease inhibitors), sequentially. The protease inhibitors used in the experiments were a cocktail of five protease inhibitors (500 mM AEBSF-HCl, 1 mg/ml Aprotinin, 1 mM E-64, 500 mM EDTA and 1 mM Leupeptin; Calbiochem NO 539131). For whole cell lysate, cells were lysed with 150 mM NaCl; 10 mM Tris ph7.5; 10 mM EDTA; 1% Triton X-100; 0.5% Deoxycholate, and protease inhibitors. The protein concentration was measured using a Bio-Rad protein assay. Equal amounts of protein were loaded on a SDS-PAGE gel. […]

Read-outs that look alike come from different tables or passages of the source.

For the compound `O=C(O)c1nn(Cc2ccc(Cl)cc2Cl)c2ccccc12` [lonidamine, 1-(2,4-dichlorobenzyl)-1H-indazole-3-carboxylic acid], the “sensitivity of citrate-producing cells (LNCaP) to lonidamine treatment compared to citrate-oxidizing cells (PC3)” value in assay [1] (HIF-1alpha accumulation, LNCaP versus PC3) is “greater sensitivity”. For the same compound, the “level of HIF-1alpha protein detected in nuclear (NE) and whole-cell extract (WCE) preparations” value in assay [1] (LNCaP cells, hypoxic conditions (oxygen <0.1%), 4 hours, inhibition dose-dependent) is recorded as “reduced the level of HIF-1alpha protein”. In addition, the “time to progression in metastatic breast cancer patients treated with epirubicin” value in assay [2] was “not improved”. Moreover, in assay [3] (28 patients evaluable), the minor response is on record as 11% and the “partial response (4-24+ months)” value was 11%. Also, in assay [3] (of 28 patients evaluable), the progressed was 20 patients and the “stable disease (greater than 3 months)” value was “two”. Besides, the “level of HIF-1alpha protein detected in nuclear (NE) and whole-cell extract (WCE) preparations” value in assay [4] is on record as “reduced the level of HIF-1alpha protein”. Besides, the “inhibition of protein levels of actin, caspase 3, NF-kappabeta, or Ikappabetaalpha” value in assay [5] is listed as “no detectable inhibition”.

The values above are taken from patent US20060276527A1, “Combination therapies for the treatment of cancer” (Thresold Pharmaceuticals, Inc., priority 2003, published 2006).
